Measurements reported in ChEMBL document CHEMBL3860083, “Tautomeric and non-tautomeric N-substituted 2-iminobenzimidazolines as new lead compounds for the design of anti-influenza drugs: An in vitro study” (Bioorg Med Chem, 2016).

Assays:
[1] = Cytotoxicity against MDCK cells assessed as increase in cell death after 48 hrs by MTT assay; assay type: toxicity, cell-based, Canis lupus familiaris; conditions: dog
[2] = Selectivity index, ratio of CC50 for MDCK cells to IC50 for Influenza A virus (A/California/07/09(H1N1)) pdm09; assay type: functional
[3] = Antiviral activity against Influenza A virus (A/California/07/09(H1N1))pdm09 infected in MDCK cells assessed as decrease in virus production preincubated for 1 hr with cells followed by viral infection measured after 24 hrs by hemagglutination assay; assay type: functional, cell-based, Influenza A virus (A/California/07/2009(H1N1))
Sabia virus = assay: Antiviral activity against Sabia virus; assay type: functional
Machupo mammarenavirus = assay: Antiviral activity against Machupo virus; assay type: functional; conditions: Mammarenavirus machupoense
Guanarito virus = assay: Antiviral activity against Guanarito virus; assay type: functional; conditions: Mammarenavirus guanaritoense
Lassa virus = assay: Antiviral activity against Lassa virus; assay type: functional; conditions: Mammarenavirus lassaense
Junin virus = assay: Antiviral activity against Junin virus; assay type: functional; conditions: Mammarenavirus juninense

SMILES | CC50 at 48 h [1] [µM] | Ratio CC50/IC50 [2] | IC50 [3] [µM] | IC50 (Sabia virus) [µM] | IC50 (Machupo mammarenavirus) [µM] | IC50 (Guanarito virus) [µM] | IC50 (Lassa virus) [µM] | IC50 (Junin virus) [µM]
Br.C=CCn1c(=N)n(CCCOc2ccc(F)cc2)c2ccccc21 | 80.1 | 8 | 9.9 | – | – | – | – | –
O=C(/N=c1\[nH]c2ccccc2n1CCOc1ccc(Br)cc1)c1cccs1 | > 2260 | >7 | 317 | – | – | – | – | –
Br.C=CCn1c(=N)n(CCOc2ccc(C(C)(C)C)cc2)c2ccccc21 | 12.8 | 8 | 1.6 | – | – | – | – | –
Cl.N=c1n(Cc2ccc(F)cc2)c2ccccc2n1Cc1ccc(Cl)c(Cl)c1 | 21.8 | 5 | 4.5 | – | – | – | – | –
Br.Cc1ccc(OCCn2c(=N)n(Cc3ccc(Cl)c(Cl)c3)c3ccccc32)cc1 | 13.2 | 11 | 0.6 | – | – | – | – | –
O=C(/N=c1\[nH]c2ccccc2n1CCOc1ccc(F)cc1)c1ccc(Cl)cc1 | > 732 | >7 | 112 | – | – | – | – | –
Cl.N=c1n(CO)c2ccccc2n1CCOc1ccc(Cl)cc1 | 40.8 | 9 | 4.6 | – | – | – | – | –
O=C(/N=c1\[nH]c2ccccc2n1CCOc1ccc(F)cc1)c1ccc([N+](=O)[O-])cc1 | > 2550 | >5 | 543 | – | – | – | – | –
COc1ccc(OCCn2/c(=N/C(=O)c3cccs3)[nH]c3ccccc32)cc1 | > 2540 | >6 | 450 | – | – | – | – | –
Cc1ccccc1OCCn1/c(=N/C(=O)c2cccs2)[nH]c2ccccc21 | 159 | 5 | 33.2 | – | – | – | – | –
Cl.N=c1n(CCOc2ccc(F)cc2)c2ccccc2n1CC(N)=O | 1260 | 23 | 54.8 | – | – | – | – | –
O=C(/N=c1\[nH]c2ccccc2n1CCOc1cccc(Cl)c1)c1ccco1 | 820 | 63 | 13.1 | – | – | – | – | –
Cl.N=c1n(CC(N)=O)c2ccccc2n1Cc1ccc(Cl)c(Cl)c1 | 196 | 28 | 7 | – | – | – | – | –
CC(C)(C)c1ccc(C(=O)/N=c2\[nH]c3ccccc3n2CCOc2ccc(Br)cc2)cc1 | 2030 | 54 | 37.4 | – | – | – | – | –
S=C(Nc1ccccc1)Nc1nc2ccccc2n1CCOc1ccc(Br)cc1 | 20.3 | <1 | > 21.4 | – | – | – | – | –
Cc1ccc(OCCn2c(=N)n(CC(N)=O)c3ccccc32)cc1.Cl | 309 | 9 | 35.8 | – | – | – | – | –
Cl.N=c1n(CCO)c2ccccc2n1Cc1ccc(Cl)c(Cl)c1 | 202 | 83 | 2.4 | – | – | – | – | –
O=C(/N=c1\[nH]c2ccccc2n1CCOc1ccc(Cl)cc1)c1cccs1 | 2240 | 8 | 297 | – | – | – | – | –
O=C(Nc1nc2ccccc2n1CCOc1ccccc1)c1ccco1 | 2160 | 50 | 42.9 | – | – | – | – | –
CC(C)(C)c1ccc(OCCn2c(=N)n(CC(N)=O)c3ccccc32)cc1.Cl | 151 | 5 | 27.5 | – | – | – | – | –
S=C(Nc1ccccc1)Nc1nc2ccccc2n1CCOc1ccccc1 | 25.8 | 1 | 25.8 | – | – | – | – | –
COc1ccc(-n2cnc3cc(NCc4ccc(C)cc4)ccc32)cc1 | – | – | – | 0.0002 to 0.012 | 0.0002 to 0.012 | 0.0002 to 0.012 | 0.0016 | 0.0002 to 0.012
O=C(Nc1nc2ccccc2n1CCOc1ccc(Cl)cc1)c1ccco1 | 346 | 6 | 57.6 | – | – | – | – | –
